Data published in patent publication US11547697B2, “Heterocyclic compounds and uses thereof” (MILLENNIUM PHARMACEUTICALS, INC., priority 2009, dated 2023).
Like-named read-outs stand apart in the source and are kept apart here.

What was measured:
Assay type in all cases: biochemical
p110δ/p85α = p110δ/p85α (Homo sapiens (Human), UniProt O00329); experiment: PI 3-Kinase (human) HTRF assay, p110δ/p85α
p110α/p85α = p110α/p85α (Homo sapiens (Human), UniProt P42336); experiment: PI 3-Kinase (human) HTRF assay, p110α/p85α
p110α/p85α, sequence (P42336 whole entry): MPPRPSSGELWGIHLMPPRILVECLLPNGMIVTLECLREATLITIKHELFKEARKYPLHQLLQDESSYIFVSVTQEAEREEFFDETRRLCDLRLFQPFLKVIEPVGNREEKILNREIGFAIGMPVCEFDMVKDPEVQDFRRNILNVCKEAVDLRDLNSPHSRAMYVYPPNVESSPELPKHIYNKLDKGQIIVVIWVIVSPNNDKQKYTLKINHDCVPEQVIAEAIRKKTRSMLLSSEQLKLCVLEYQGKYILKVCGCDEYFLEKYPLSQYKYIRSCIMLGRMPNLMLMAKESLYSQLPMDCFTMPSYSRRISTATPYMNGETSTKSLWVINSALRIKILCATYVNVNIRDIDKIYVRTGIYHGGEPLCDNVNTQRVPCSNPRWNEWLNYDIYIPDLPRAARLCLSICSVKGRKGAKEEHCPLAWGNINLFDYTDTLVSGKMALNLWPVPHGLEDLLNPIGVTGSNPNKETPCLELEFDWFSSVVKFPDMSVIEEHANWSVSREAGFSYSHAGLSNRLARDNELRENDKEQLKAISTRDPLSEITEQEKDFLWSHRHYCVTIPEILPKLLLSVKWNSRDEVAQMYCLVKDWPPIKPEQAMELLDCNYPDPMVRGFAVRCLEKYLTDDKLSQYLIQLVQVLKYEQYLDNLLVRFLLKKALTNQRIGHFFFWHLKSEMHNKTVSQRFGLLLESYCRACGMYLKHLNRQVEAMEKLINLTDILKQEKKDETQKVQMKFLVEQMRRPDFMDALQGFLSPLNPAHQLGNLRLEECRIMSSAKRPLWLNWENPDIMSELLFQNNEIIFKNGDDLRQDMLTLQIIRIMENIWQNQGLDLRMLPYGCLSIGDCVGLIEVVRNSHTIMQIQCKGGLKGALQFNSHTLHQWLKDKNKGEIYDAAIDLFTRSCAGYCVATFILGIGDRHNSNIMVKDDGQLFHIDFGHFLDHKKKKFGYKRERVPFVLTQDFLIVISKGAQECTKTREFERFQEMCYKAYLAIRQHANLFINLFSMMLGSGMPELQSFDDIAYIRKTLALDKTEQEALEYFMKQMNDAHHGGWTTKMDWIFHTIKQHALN
p110α/p85α, sequence (P27986 whole entry partner): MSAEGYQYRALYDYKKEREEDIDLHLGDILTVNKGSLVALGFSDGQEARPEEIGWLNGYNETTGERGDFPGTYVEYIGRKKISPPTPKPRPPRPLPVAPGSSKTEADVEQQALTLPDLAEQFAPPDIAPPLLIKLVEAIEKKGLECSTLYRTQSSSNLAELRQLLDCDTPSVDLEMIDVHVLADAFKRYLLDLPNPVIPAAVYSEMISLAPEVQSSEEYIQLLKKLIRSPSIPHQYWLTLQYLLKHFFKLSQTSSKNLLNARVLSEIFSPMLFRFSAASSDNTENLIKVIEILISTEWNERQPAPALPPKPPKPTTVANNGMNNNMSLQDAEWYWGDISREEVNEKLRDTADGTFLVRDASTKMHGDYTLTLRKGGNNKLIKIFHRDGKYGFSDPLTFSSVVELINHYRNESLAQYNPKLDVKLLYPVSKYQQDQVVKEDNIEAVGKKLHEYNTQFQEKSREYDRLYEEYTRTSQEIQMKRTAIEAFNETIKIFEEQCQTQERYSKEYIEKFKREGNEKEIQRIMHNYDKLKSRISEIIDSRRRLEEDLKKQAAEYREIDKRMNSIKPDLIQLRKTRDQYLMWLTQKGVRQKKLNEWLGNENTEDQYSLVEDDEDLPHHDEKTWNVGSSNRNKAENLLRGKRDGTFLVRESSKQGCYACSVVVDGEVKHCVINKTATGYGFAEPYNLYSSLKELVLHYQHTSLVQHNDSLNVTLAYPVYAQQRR

p110γ = p110γ (Homo sapiens (Human), UniProt P48736); experiment: PI 3-Kinase (human) HTRF assay, p110γ
p110γ, sequence (P48736 whole entry): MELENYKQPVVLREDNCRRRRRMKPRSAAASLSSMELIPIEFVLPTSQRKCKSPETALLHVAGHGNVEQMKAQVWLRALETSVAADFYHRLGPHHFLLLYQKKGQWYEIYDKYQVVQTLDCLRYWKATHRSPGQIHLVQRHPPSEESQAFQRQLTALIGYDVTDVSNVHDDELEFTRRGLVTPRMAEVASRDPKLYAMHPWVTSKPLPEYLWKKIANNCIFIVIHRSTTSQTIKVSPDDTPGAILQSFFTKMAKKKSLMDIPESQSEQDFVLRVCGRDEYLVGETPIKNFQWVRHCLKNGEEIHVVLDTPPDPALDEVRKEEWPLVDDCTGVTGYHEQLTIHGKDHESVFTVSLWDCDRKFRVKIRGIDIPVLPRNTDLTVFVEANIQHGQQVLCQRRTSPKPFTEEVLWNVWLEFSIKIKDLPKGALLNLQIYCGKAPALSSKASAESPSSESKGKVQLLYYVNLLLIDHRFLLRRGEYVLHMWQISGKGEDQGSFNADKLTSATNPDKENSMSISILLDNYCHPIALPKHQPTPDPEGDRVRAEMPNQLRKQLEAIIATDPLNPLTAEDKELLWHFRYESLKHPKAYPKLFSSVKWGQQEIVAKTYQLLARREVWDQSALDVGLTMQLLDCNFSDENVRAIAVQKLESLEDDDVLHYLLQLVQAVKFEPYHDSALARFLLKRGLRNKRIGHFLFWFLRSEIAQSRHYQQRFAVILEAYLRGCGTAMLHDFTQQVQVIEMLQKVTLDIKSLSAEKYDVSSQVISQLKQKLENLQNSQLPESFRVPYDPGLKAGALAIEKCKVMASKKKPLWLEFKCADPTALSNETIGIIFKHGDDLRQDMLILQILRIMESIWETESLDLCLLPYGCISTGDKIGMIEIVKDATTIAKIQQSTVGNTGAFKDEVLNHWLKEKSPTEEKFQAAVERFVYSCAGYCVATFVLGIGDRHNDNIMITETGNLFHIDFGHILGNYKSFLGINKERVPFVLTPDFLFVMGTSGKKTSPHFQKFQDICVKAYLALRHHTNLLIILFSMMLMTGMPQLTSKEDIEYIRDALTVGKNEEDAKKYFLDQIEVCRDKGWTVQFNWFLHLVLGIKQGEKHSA

p110β/p85α = p110β/p85α (Homo sapiens (Human), UniProt P42338); experiment: PI 3-Kinase (human) HTRF assay, p110β/p85α
p110β/p85α, sequence (P42338 whole entry): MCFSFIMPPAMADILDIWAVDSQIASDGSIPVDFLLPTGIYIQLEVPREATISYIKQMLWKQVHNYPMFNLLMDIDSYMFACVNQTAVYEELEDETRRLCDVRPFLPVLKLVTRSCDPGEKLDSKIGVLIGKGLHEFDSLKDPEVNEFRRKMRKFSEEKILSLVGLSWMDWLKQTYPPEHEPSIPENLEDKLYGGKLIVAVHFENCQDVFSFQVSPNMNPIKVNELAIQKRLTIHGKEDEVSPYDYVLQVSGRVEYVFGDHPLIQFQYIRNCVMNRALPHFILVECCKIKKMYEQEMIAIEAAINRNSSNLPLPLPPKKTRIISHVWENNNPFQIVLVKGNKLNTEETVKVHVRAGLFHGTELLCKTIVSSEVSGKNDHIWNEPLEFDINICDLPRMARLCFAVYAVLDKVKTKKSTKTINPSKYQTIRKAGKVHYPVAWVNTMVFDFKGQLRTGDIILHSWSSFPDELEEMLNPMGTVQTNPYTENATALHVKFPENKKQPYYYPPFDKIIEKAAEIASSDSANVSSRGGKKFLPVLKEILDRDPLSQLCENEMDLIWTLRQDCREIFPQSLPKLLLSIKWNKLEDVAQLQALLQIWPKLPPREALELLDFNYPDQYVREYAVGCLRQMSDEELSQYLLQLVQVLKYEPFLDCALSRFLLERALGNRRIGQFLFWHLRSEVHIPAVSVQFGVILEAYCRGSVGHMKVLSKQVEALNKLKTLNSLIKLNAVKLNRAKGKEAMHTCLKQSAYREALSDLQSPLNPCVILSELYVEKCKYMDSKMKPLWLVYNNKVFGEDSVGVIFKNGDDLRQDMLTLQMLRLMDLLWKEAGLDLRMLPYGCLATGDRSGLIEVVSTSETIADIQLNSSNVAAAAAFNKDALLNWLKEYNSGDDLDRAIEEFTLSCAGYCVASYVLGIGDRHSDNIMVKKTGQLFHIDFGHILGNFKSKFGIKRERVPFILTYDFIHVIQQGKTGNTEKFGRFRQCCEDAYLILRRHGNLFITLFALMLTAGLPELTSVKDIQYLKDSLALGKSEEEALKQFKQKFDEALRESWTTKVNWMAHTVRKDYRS
p110β/p85α, sequence (P27986 whole entry partner): as the sequence (P27986 whole entry partner) above

[1] = in vitro, read-out: PI3K δ IC50
[2] = in vitro, read-out: PI3K α IC50
[3] = in vitro, read-out: PI3K γ IC50
[4] = in vitro, read-out: PI3K β IC50

p110δ/p85α, sequence (O00329 whole entry): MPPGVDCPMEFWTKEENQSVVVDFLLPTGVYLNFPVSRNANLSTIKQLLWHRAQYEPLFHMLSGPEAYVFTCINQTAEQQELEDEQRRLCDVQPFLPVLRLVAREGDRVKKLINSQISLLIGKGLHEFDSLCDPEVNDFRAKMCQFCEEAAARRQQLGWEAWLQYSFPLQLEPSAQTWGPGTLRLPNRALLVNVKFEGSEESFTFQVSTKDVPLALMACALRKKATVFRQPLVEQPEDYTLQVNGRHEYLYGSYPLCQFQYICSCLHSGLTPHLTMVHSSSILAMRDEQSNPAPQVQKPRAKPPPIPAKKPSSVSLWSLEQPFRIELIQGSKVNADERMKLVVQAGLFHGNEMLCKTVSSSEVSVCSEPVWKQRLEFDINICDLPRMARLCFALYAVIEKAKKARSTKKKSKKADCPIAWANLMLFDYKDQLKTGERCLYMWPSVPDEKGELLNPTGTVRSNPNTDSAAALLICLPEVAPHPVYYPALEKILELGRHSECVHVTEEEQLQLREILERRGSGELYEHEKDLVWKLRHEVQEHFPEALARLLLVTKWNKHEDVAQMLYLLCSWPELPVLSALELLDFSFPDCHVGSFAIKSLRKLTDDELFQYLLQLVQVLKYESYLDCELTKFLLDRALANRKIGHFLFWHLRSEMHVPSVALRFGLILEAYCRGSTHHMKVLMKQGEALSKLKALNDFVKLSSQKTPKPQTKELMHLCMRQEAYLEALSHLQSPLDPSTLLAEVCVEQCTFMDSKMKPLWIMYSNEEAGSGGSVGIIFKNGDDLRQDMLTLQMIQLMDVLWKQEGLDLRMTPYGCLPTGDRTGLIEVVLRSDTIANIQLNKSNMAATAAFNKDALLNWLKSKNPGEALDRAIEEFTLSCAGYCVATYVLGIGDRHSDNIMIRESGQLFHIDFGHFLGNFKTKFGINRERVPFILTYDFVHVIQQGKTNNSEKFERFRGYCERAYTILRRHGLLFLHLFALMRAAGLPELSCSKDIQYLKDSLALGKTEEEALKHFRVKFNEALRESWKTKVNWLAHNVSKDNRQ
p110δ/p85α, sequence (P27986 whole entry partner): as the sequence (P27986 whole entry partner) above

IC50 (p110δ/p85α; [1]) [nM]	IC50 (p110α/p85α; [2]) [nM]	IC50 (p110γ; [3]) [nM]	IC50 (p110β/p85α; [4]) [nM]	SMILES	also measured
< 1000	< 100	< 100	< 100	CN1CCC(NC(=O)c2cnc3ccc(-c4ccc5oc(N)nc5c4)nn23)CC1 [compound 203]	
< 10000	< 1000	< 1000	< 1000	Nc1nc2cc(-c3ccc4ncc(N5CC(N)C5)nc4c3)ccc2o1 [compound 367]	
< 10000	< 1000	< 10000		Nc1nc2cc(-c3ccc4ncc(N5CCN(C(=O)C6(N)CC6)CC5)nc4c3)ccc2o1 [compound 226]	
< 1000	< 1000		< 10000	Nc1nc2cc(-c3ccc4ncc(C(=O)NCCN5CCCC5)n4c3)ccc2o1 [compound 296]	
< 10000	< 1000		< 10000	Nc1nc2cc(-c3ccc4ncn(CCCN5CCCC5)c(=O)c4c3)ccc2o1 [compound 271]	

More lines, now with the values behind:

SMILES	IC50 (p110δ/p85α; [1]) [nM]	IC50 (p110α/p85α; [2]) [nM]	IC50 (p110γ; [3]) [nM]	IC50 (p110β/p85α; [4]) [nM]	also measured
Cc1nccn1C1CCN(c2cnc3ccc(-c4ccc5oc(N)nc5c4)cc3n2)CC1 [compound 344]	< 1000	< 100	< 10000	< 10000	
Nc1nc2cc(-c3ccc4ncc(N5CC(N6CCCC6)C5)nc4c3)ccc2o1 [compound 314]	< 10000	< 1000	< 10000	< 10000	
Nc1nc2cc(-c3ccc4ncc(C(=O)N5CC[C@@H](N6CCOCC6)C5)n4c3)ccc2o1 [compound 466]					IC50 (p110δ/p85α; read-out: PI3K δ In Vitro IC50): < 10000 nM; IC50 (p110α/p85α; read-out: PI3K α In Vitro IC50): < 1000 nM; IC50 (p110γ; read-out: PI3K γ In Vitro IC50): < 1000 nM; IC50 (p110β/p85α; read-out: PI3K β In Vitro IC50): < 10000 nM
Nc1nc2cc(-c3ccc4ncc(C(=O)Nc5cccnc5)n4c3)ccc2o1 [compound 190]					IC50 (p110δ/p85α; read-out: PI3K δ IC50): < 1000 nM; IC50 (p110α/p85α; read-out: PI3K α IC50): < 100 nM; IC50 (p110γ; read-out: PI3K γ IC50): < 100 nM
Nc1nc2cc(-c3ccc4ncc(-c5cn[nH]c5)n4c3)ccc2o1 [compound 38]					IC50 (p110δ/p85α; read-out: PI3K δ IC50): < 100 nM; IC50 (p110α/p85α; read-out: PI3K α IC50): < 100 nM; IC50 (p110γ; read-out: PI3K γ IC50): < 100 nM
Nc1nc2ccc(-c3ccc4sc(N)nc4c3)cc2o1 [compound 249]	< 1000	< 100	< 100	< 100	
Nc1nc2cc(-c3ccc4ncc(NCCN5CCCC5)nc4c3)ccc2o1 [compound 219]	< 1000	< 1000	< 1000	< 1000	
Nc1nc2cc(-c3cn4c(-c5ccncc5)cnc4cn3)ccc2o1 [compound 68]					IC50 (p110δ/p85α; read-out: PI3K δ IC50): < 10000 nM; IC50 (p110α/p85α; read-out: PI3K α IC50): < 100 nM; IC50 (p110γ; read-out: PI3K γ IC50): < 1000 nM; IC50 (p110β/p85α; read-out: PI3K β IC50): < 10000 nM
CCN(CC)CCCNC(=O)c1cnc2ccc(-c3ccc4oc(N)nc4c3)cn12 [compound 302]	< 100	< 1000	< 10000	< 10000	
Nc1nc2cc(-c3ccc4nccc(-c5cn[nH]c5)c4c3)ccc2o1 [compound 20]					IC50 (p110δ/p85α; read-out: PI3K δ IC50): < 100 nM; IC50 (p110α/p85α; read-out: PI3K α IC50): < 100 nM; IC50 (p110β/p85α; read-out: PI3K β IC50): < 100 nM
Nc1nc2cc(-c3ccc4nccc(N5CCOCC5)c4c3)ccc2o1 [compound 28]					IC50 (p110δ/p85α; read-out: PI3K δ IC50): < 1000 nM; IC50 (p110α/p85α; read-out: PI3K α IC50): < 100 nM; IC50 (p110γ; read-out: PI3K γ IC50): < 100 nM
CCN(CC)CCCn1cnc2ccc(-c3ccc4oc(N)nc4c3)cc2c1=O [compound 281]	< 10000	< 1000			
Nc1nc2cc(-c3ccc4nccc(NCCN5CCOCC5)c4c3)ccc2o1 [compound 33]					IC50 (p110δ/p85α; read-out: PI3K δ IC50): < 1000 nM; IC50 (p110α/p85α; read-out: PI3K α IC50): < 100 nM; IC50 (p110γ; read-out: PI3K γ IC50): < 1000 nM
CN1CCN(C(=O)C2CN(c3cnc4ccc(-c5ccc6oc(N)nc6c5)cc4n3)C2)CC1 [compound 253]	< 10000		< 10000	< 10000	
Nc1nc2cc(-c3ccc4ncc(C(=O)N5CCC(N6CCC(F)(F)C6)C5)n4c3)ccc2o1 (centres unmarked) [compound 500]					IC50 (p110δ/p85α; read-out: PI3K δ In Vitro IC50): < 10000 nM; IC50 (p110α/p85α; read-out: PI3K α In Vitro IC50): < 1000 nM; IC50 (p110γ; read-out: PI3K γ In Vitro IC50): < 10000 nM
Nc1nc2cc(-c3ccc4ncc(C(=O)N5CC(n6cccn6)C5)n4c3)ccc2o1 [compound 479]					IC50 (p110δ/p85α; read-out: PI3K δ In Vitro IC50): < 10000 nM; IC50 (p110α/p85α; read-out: PI3K α In Vitro IC50): < 100 nM; IC50 (p110γ; read-out: PI3K γ In Vitro IC50): < 1000 nM
CN1CCN(c2cc(-c3ccnc4ccc(-c5ccc6oc(N)nc6c5)cc34)ccn2)CC1 [compound 30]					IC50 (p110δ/p85α; read-out: PI3K δ IC50): < 100 nM; IC50 (p110α/p85α; read-out: PI3K α IC50): < 100 nM; IC50 (p110γ; read-out: PI3K γ IC50): < 100 nM
Nc1nc2cc(-c3ccc4ncc(C#CC5CC5)n4c3)ccc2o1 [compound 39]					IC50 (p110δ/p85α; read-out: PI3K δ IC50): < 100 nM; IC50 (p110α/p85α; read-out: PI3K α IC50): < 100 nM; IC50 (p110γ; read-out: PI3K γ IC50): < 100 nM
O=C(c1cnc2ccc(-c3cnc4[nH]ncc4c3)cn12)N1CCOCC1 [compound 492]					IC50 (p110δ/p85α; read-out: PI3K δ In Vitro IC50): < 10000 nM; IC50 (p110γ; read-out: PI3K γ In Vitro IC50): < 10000 nM; IC50 (p110β/p85α; read-out: PI3K β In Vitro IC50): < 10000 nM
Nc1nc2cc(-c3ccc4ncc(N5CC(C(=O)N6CCOCC6)C5)nc4c3)ccc2o1 [compound 252]	< 10000		< 10000	< 10000	
Cc1c(-c2ccc3oc(N)nc3c2)ccc2ncc(N3CCN[C@@H](C)C3)nc12 [compound 374]	< 10000	< 1000		< 100	
O=C(c1cnc2ccc(-c3cncc(NS(=O)(=O)c4ccccc4)c3)cn12)N1CCOCC1 [compound 424]					IC50 (p110δ/p85α; read-out: PI3K δ In Vitro IC50): < 10000 nM; IC50 (p110α/p85α; read-out: PI3K α In Vitro IC50): < 1000 nM; IC50 (p110γ; read-out: PI3K γ In Vitro IC50): < 1000 nM
COc1ncc(-c2ccc3ncc(C(=O)N4CCOCC4)n3c2)c2cn[nH]c12 [compound 517]					IC50 (p110δ/p85α; read-out: PI3K δ In Vitro IC50): < 10000 nM; IC50 (p110α/p85α; read-out: PI3K α In Vitro IC50): < 1000 nM; IC50 (p110γ; read-out: PI3K γ In Vitro IC50): < 10000 nM
